Marks after values point to notes of the source that are not given here.

Experiment [1] concerns IDDM of NOD mice. In words: Insulin dependent diabetes mellitus (IDDM) of NOD mice. It is filed as in vivo.
Experiment [2] deals with mortality after gamma irradiation. In words: Radioprotective effect in gamma-irradiated mice. The experiment is classed as in vivo, BALB/c mice. The procedure:
Groups of female BALB/c mice, 8 weeks old, 5-10 mice per group, were injected subcutaneously with either saline (0.1 ml, control), H-9392 (30 ng/mouse), or glucosamine (10,000 ng/mouse) 1 day before irradiation, and weekly thereafter until termination of the experiment on day 30. All the mice were irradiated to a dose of 700 rads using a ^60Co gamma radiation source.
In a separate experiment, groups of BALB/c mice (5 mice to a group) were likewise exposed to 750 rads of gamma-rays, except that these groups of mice were treated with test substances (saline at 0.1 ml per mouse; H-9392 at 0.3, 3, 30 and 300 ng/mouse; and glucosamine at 1, 10 and 100 µg/mouse) on the day before irradiation, on the sixth day after irradiation, and once again on the thirteenth day after irradiation only. All treatment ceased after the third and last administration.

Experiment [3] concerns adjuvant arthritis in Lewis rats. The experiment can be described thus: Adjuvant arthritis (AA) in rats. The experiment is classed as in vivo.
The test system of experiment [4] is experimental DTH reaction in mice. In words: In vivo bioassay of inhibition of experimental DTH reactivity (oxazolone ear swelling). The following applies: for DTH Response: at the dose giving Inhmax. The arrangement: species or system mice (BALB/c or CD1). The procedure:
Groups of inbred BALB/c (Jackson Laboratories, Bar Harbor, ME) or of outbred CD1 (Weizmann Institute Animal Breeding Center, Rehovot, Israel) mice are sensitized on the shaved abdominal skin with 100 µl of 2% oxazolone (OX) in acetone/olive oil (4/1, v/v) applied topically. DTH sensitivity is elicited 5 days later as follows: mice are challenged with 20 µl of 0.5% OX (10 µl administered topically to each side of the ear) in acetone/olive oil. A constant area of the ear is measured immediately before challenge and 24 and 48 h later with a Mitutoyo engineer's micrometer. The individual measuring ear swelling is blinded to the identity of the groups of mice. The increment (△) of ear swelling is expressed as the mean in units of 10^-2 mm or 10^-4 inch (+SE) depending on the micrometer that is used. Percent inhibition is calculated as follows: %Inhibition= 1-((Treated-negative control)/(positive control-negative control)) [formula]
Mice are treated with LMWH as in Example 5.1, injected the day before primary sensitization to OX. On the fifth day after sensitization to OX, the mice are challenged to induce a DTH reaction, as described above.
The positive control is the DTH reaction elicited in immunized mice in the absence of treatment with LMWH. The negative control is the background swelling produced by the antigen in naive (non-immunized) mice.
BALB/c mice (at least 5 mice per group) were sensitized on the shaved abdomen with 3% 4-ethoxymethylene-2-phenyl oxazolone (OX; BDH Chemicals, GB) in acetone/olive oil applied topically. DTH sensitivity was elicited 5 days later as follows. Mice were challenged with 0.5% OX in acetone/olive oil. The ear was measured immediately before challenge and 24 h later with Mitutoyo engineer's micrometer (Japan). The individual measuring the swelling of the ear was blinded to the identity of the groups of mice. To interfere with DTH response, the low molecular weight immuno-regulatory fractions, diluted in PBS, were administrated subcutaneously into the back of the treated mice at the indicated time schedules and concentrations. Treated mice were inspected during and after (>2 months) the treatment and no major side-effects were observed clinically.
In particular, CD1 mice (available from the Weizmann Institute Animal Breeding Center, Rehovot, Israel), 4-12 mice per group, were treated as described in Section 5.2 or 6.8.

The test system of experiment [5] is ELAM-1. The experiment can be described thus: TNF-α-induced expression of adhesion molecules by endothelial cells (ELISA). To be noted: for Recombinant human TNFα-induced adhesion molecules (O.D 492): 1 h pretreatment of EC, TNFα alone 1.2±0.1. (An ELISA detects its analyte on a solid surface through an enzyme-linked reagent.)
For experiment [6], the system named is LPS-induced inflammation of the cornea. In words: LPS-induced inflammation of the rat cornea. The experiment is classed as in vivo, Lewis rats. As to the method:
LPS-induced inflammation of the cornea is TNF dependent, as shown by the work of Vanderhagen, C. and co-workers in the Netherlands, "Kinetics of Intraocular TNF and IL-6 in Endotoxin-Induced Uveitis in the Rat," submitted for publication. Using a 30-gauge needle, LPS (5 ng) was injected into the cornea of Lewis rats. After one day, separate groups of rats, 2 to a group (or 4 eyes to a group), were then injected subcutaneously with phosphate-buffered saline (0.05 ml) or H-1020 (at a dose of either 50 ng/rat or 200 ng/rat). The effects, if any, were scored as follows:
in which the sum of the points is used as the total score.

Experiment [7] relates to ICAM-1. In words: TNF-α-induced expression of adhesion molecules by endothelial cells (ELISA). The following applies: 1 h pretreatment of EC, TNFα alone 2.2±0.2.
Experiment [8] relates to experimental DTH reaction in mice. In words: In vivo bioassay of inhibition of experimental DTH reactivity (oxazolone ear swelling). Details: species or system mice (BALB/c or CD1). The following applies: inhibitory; administered orally.
Experiment [9] relates to secretion of active TNF-α by activated human CD4+ T cells. The experiment can be described thus: Bioassay of TNF-α activity using human CD4+ T cells derived from PBLs (human PBL bioassay). The following applies: concentration that gave the Inhmax or Augmax of the same line.
[10] abbreviates: CD1 mice, s.c., higher effective dose range.
Setting [11] is: CD1 mice, s.c., inhibitory, 0 = no effect.

As for `N[C@H]1C(O)O[C@H](CO)[C@@H](O)[C@@H]1O` (stereo partly drawn) [GlcN, 2-amino-2-deoxy-D-glucose], the “mice that had become diabetic” value in [1] (at 4.5 months, H-9392 30 ng/mouse, glucosamine 10,000 ng/mouse s.c., all control mice diabetic) is reported as “about 65%”. Besides, the “mice that had died, in words” value in experiment [1] (by age 5 months, H-9392 30 ng, glucosamine 10,000 ng, all control mice had died) was “about half”. Moreover, the mortality rate in experiment [2] (700 rads, by day 30, s.c. 1 day before irradiation and weekly, H-9392 30 ng/mouse, glucosamine 10,000 ng/mouse, saline 100%) is reported as 20%. Besides, in experiment [2] (750 rads, three administrations, 300 ng H-9392, 1 µg glucosamine), the “activity in suppressing mortality after irradiation, in words” value is “moderate activity in suppressing mortality”. Moreover, the “inhibition of the development of AA, of control levels” value in [3] (s.c. weekly, three dosage levels) is 60-80%. Also, the Inhmax in experiment [4] (CD1 mice, s.c.) was 75%; in [4] (setting [10]), 88%. In experiment [4] (CD1 mice, s.c., dose giving Inhmax in the higher effective dose range), this compound registered a Dose of 0.4 µg/gm. Moreover, the “"R" value” is listed as 2.2 x 10^2 % x (µg/gm)^-1 in experiment [4] (setting [10]) and 6.25 x 10^6 % x (μg/gm)^-1 in experiment [4] (setting [11]).
Take `O=C(O)C1=C[C@H](O)[C@@H](O)[C@H](O[C@H]2[C@H](O)[C@@H](NS(=O)(=O)O)C(O)O[C@@H]2COS(=O)(=O)O)O1` (stereo partly drawn) [H-1020, 4-deoxy-4-en-iduronic acid-(α-1,4)-2-deoxy-2-N-sulfate-6-O-sulfateglucosamine]: the “Recombinant human TNFα-induced adhesion molecules (O.D 492)” value in experiment [5] (50 pg/ml, no TNFα 0.12±0.01) is given as 0.7±0.05 O.D 492; in [5] (100 pg/ml) it was 0.9±0.03 O.D 492; in [7] (50 pg/ml, no TNFα 0.18±0.01) it was 1.2±0.1 O.D 492; in experiment [7] (100 pg/ml) it was 1.5±0.07 O.D 492. Also, the “inhibition of the up regulation of EC expression of adhesion molecules induced by TNF-α” value in [5] (ELAM-1 and ICAM-1 not told apart in the sentence) is “up to 50%”. In addition, the “effect on the LPS-induced inflammation score, in words” value is recorded as “effective to suppress the effects of the local LPS-induced inflammation” in [6] (50 ng/rat s.c. one day after LPS) and “failed to provide a significant effect” in experiment [6] (200 ng/rat s.c. one day after LPS). Also, the “"R" value” is recorded as 531 % x (µg/gm)^-1 in experiment [8]; 1.65 x 10^5 % x (μg/gm)^-1 in [4] (setting [11]); 146,000 % x (µg/gm)^-1 in experiment [4] (inhibitory, maximum % inhibition of DTH divided by the dose giving it, s.c., 0 = no effect). Moreover, in [3] (s.c. weekly from 1 day before induction, day 24, dose not given), the “inhibition of the development of AA relative to control” value was “about 30%”. Besides, the conc in experiment [9] is 1 pg/mL. The Inhmax is on record as 66% in [4] (CD1 mice, s.c.); 68% in experiment [4] (maximum inhibition of DTH, administered orally); 73% in [4] (maximum inhibition of DTH, subcutaneous). Besides, in experiment [4] (CD1 mice, s.c., at that dose, value in parentheses in the cell taken as positive control, not reported), the DTH is 6.7 ± 1.1 (19.6 ± 1.2) 10^-2 mm. In addition, the “DTH Response” value in [4] (administered orally) is 5.9 ± 0.9 10^-2mm; in experiment [4] (subcutaneous), 4.7 ± 0.7 10^-2mm. Moreover, the Dose in [4] (dose giving Inhmax, administered orally) is 0.128^a µg/gm mouse; in experiment [4] (dose giving Inhmax, subcutaneous) it was 0.0005 µg/gm mouse.

These data come from patent EP1095657A2, “Compositions for the regulation of cytokine activity” (priority 1992, dated 1994).
